Earlier results in US20130172260A1, “PREVENTION OF INDWELLING DEVICE RELATED INFECTION: COMPOSITION AND METHODS” (priority 2003, published 2013).

System: Staphylococcus epidermidis
Settings: 5 milli Molar in a medium

O=C(O)c1ccccc1O [salicylic acid]
inhibited both growth and Biofilm production: up to 55%
